Results taken from patent US9907853B2, “Approach to treatment of hyperglycemia using a nanoparticle encapsulated peptide” (University of Rochester, priority 2016, dated 2018).
Blank lines part the entries; values can stand above or below the molecule they belong to. Residues, ends and D or L forms follow the SMILES beside them. No end group written: not given here. *: point of attachment. Myristoyl = CCCCCCCCCCCCCC(=O)*

Experiments:
[1] = molecular target: T1, IRK (Homo sapiens, UniProt P06213); conditions: cited from earlier work
[2] = system: Akt1; experiment: Akt kinase activity immunoprecipitated from HEK cells, Crosstide substrate; type: cell-based; conditions: genistein 50 μM added 30 minutes prior to peptide or insulin
Experimental: Cells were serum starved overnight, and treated with myristoylated peptides and insulin as in FIG. 5A. Genistein (50 μM) was added to cells 30 minutes prior to treatment with peptide or insulin. Akt1 was immunoprecipitated from the lysates and kinase activity was measured using Crosstide as substrate.
Thus, Akt kinase activity was measured in cells loaded with either P2 or the scrambled P2 peptide, P2sc. Cell lysates were immunoprecipitated with anti-Akt antibody and immunoprecipitates were examined for phosphorylation of crosstide, an Akt specific substrate.

[3] = molecular target: T2, IRK (insulin receptor β-subunit) (Homo sapiens, UniProt P06213); experiment: IRK kinase activity in vitro towards IRS peptide substrate; type: biochemical; conditions: 20 μM peptide
T2 construct: Insulin receptor β-subunit (IRK); purchased Enzo Life Sciences (Farmingdale, N.Y.)
Experimental: (§1) FIG. 4A depicts P2 stimulate IRK autophosphorylation in vitro. IRK was incubated in vitro with 20 μM of peptide P2 (KYCCSRK (SEQ ID NO: 2)), peptide a (KKRILHC (SEQ ID NO: 5)) or peptide b (KRNRYLSF (SEQ ID NO: 6)) and [^32P]-ATP. The [^32P] incorporation was quantified. FIG. 4B depicts P2 stimulate IRK kinase activity in vitro; identification of IRK inhibitory peptide. A similar assay was performed as in FIG. 4A, except that the IRK peptide substrate was included. FIG. 4C depicts P2 is both a substrate and activator of IRK kinase activity in vitro. Assays using sequence variant (P2Y-F; KFCCSRK (SEQ ID NO: 9)) of P2 were performed as in FIG. 4B. FIG. 4D depicts P2 stimulates IRK kinase activity in the cell; peptide “a” is an inhibitor. […] The activity as measured in four livers of P2 injected and four control mice is shown.
(§2) Purified IRK was assayed as previously (Lerner-Marmarosh et al., 2005, PNAS 102:7109-14), using 300 μM IRS-1 Y608 peptide substrate. IRK autophosphorylation was determined as described earlier (Gibbs et al., 2012, J Biol Chem 287:1066-79). hBVR-based peptides (20 μM) were added as activators or inhibitors. […] Incorporation of ^32P was determined by liquid scintillation counting. […] Immunoprecipitates bound to protein A/G-agarose were washed in lysis buffer, followed by IRK assay buffer, and kinase activity was measured as before (Lerner-Marmarosh et al., 2005, PNAS 102:7109-14). […]

[4] = system: human skeletal muscle (HSKM) cells; experiment: 3H-deoxyglucose uptake in human skeletal muscle cells; type: cell-based; conditions: 2 hours treatment, 20 μM peptide (insulin added with 3H-deoxyglucose)
Experimental: Insulin, when used, was added at the same time as 3H-deoxyglucose. * P<0.05, ** P<0.01. […] HSKM cells were starved overnight as in described in FIG. 2A. […] Glucose uptake was measured as in A. […] Treatment with peptide nanoparticles was for 1 h. Glucose uptake was measured as described in FIG. 2A. Cultures of HEK293 were maintained in DMEM with 10% FBS. Cells were starved overnight in medium with 0.1% FBS. When used, insulin was added to serum-starved cultures at 100 nM. Human skeletal muscle cells were maintained in 1:1 DMEM:F12 medium containing 15% FBS. […] Cells were washed 3 times with cold PBS and solubilized in 150 μl 50 mM NaOH. Radioactivity was measured and normalized to protein concentration. Assessments were made in triplicate and experiments were repeated three times.

[5] = system: HepG2 cells; experiment: 3H-deoxyglucose uptake in HepG2 cells; type: cell-based; conditions: starved overnight, 1 h treatment
Experimental: FIG. 2A depicts Nanoparticle delivery of peptide P2 to human skeletal muscle (HSKM) cells stimulates glucose uptake. HSKM cells were grown in low glucose, low FBS medium overnight, then media was replaced with PBS containing 1% BSA for 1 h. Cells were pretreated for 2 hours with 20 μM myristoylated P2 or with 10 or 20 μM P2-nanoparticles, followed by measuring 3H-deoxyglucose uptake over a 15 minutes interval. Insulin, when used, was added at the same time as 3H-deoxyglucose. * P<0.05, ** P<0.01. FIG. 2B depicts a time course of glucose uptake stimulation by P2. HSKM cells were starved overnight as in described in FIG. 2A. Medium was changed to glucose-free DMEM with 1% BSA for 1 hour prior to treatment with 20 μM myr-P2 or with P2-nanoparticles for the indicated times. Glucose uptake was measured as in A. FIG. 2C depicts P2-nanoparticles affect glucose uptake in HepG2 cells. HepG2 cells were starved in low glucose DMEM with 0.1% FBS overnight. Treatment with peptide nanoparticles was for 1 h. Glucose uptake was measured as described in FIG. 2A.
Glucose uptake was assessed using 2-deoxy 1-[^3H] glucose as described previously (Lerner-Marmarosh et al., 2005, PNAS 102:7109-14), with modification. […] Radioactivity was measured and normalized to protein concentration. […]

[6] = system: GSK3α; experiment: GSK3α phosphorylation in HEK cells (Western blot); type: cell-based; conditions: 40 μM myristoylated peptide 15 minutes or insulin 100 nM
Experimental: (§3) FIG. 6A depicts Phosphorylation of GSK3α in P2-stimulated cells. Lysates of cells treated as in FIG. 5A were analyzed by Western blot; the blot was probed sequentially with antibodies to phospho-GSK3α-S21 and GSK3α. The signals were quantified by densitometry. FIG. 6B depicts Phosphorylation of GSK3β in P2-stimulated cells. Identical samples to those in FIG. 6A were probed with anti-phospho-GSK3β-S9 antibody, followed by anti-GSK3β.
HEK cells were incubated in low glucose DMEM with 0.1% FBS, overnight. Cells were treated with 40 μM myristoylated peptide for a total of 15 min; insulin or IGF-1, if used, were included for the final 10 minutes. Cells were harvested, lysed in buffer with triton ×100, and whole cell lysates were analyzed for phosphorylated Akt (T^308, S^473) or GSK3 (α-S^21, β-S^9) species by Western blotting. Each blot was stripped and probed with anti-Akt1 or anti GSK3α or GSK3β antibody, as appropriate, to control for loading.

[7] = system: GSK3β; experiment: GSK3β phosphorylation in HEK cells (Western blot); type: cell-based; conditions: 40 μM myristoylated peptide 15 minutes or insulin 100 nM
Experimental: as §3, with “anti-GSK3β. […] Cells were harvested, lysed in buffer with triton ×100, and whole cell lysates were analyzed for phosphorylated Akt (T^308, S^473) or GSK3 (α-S^21, β-S^9) species by Western blotting. Each blot was stripped and probed with anti-Akt1 or anti GSK3α or GSK3β antibody, as appropriate, to control for loading.” for “anti-GSK3β.”

[8] = molecular target: T2, IRK (insulin receptor β-subunit); experiment: IRK autophosphorylation in vitro ([32P]-ATP); type: biochemical; conditions: 20 μM peptide
Experimental: as §1, §2

[9] = molecular target: T1, IRK; experiment: IRK kinase activity immunoprecipitated from peptide-treated HEK cells; type: cell-based; design: IRK was immunoprecipitated from cell lysates and assayed using the IRS peptide as substrate; endogenous in cells; host or cells: HEK293; conditions: 40 μM myristoylated peptide, 15 minutes
Experimental: as §1, §2

Molecule: CCCCCCCCCCCCCC(=O)N[C@@H](CCCCN)C(=O)N[C@@H](Cc1ccc(O)cc1)C(=O)N[C@@H](CS)C(=O)N[C@@H](CS)C(=O)N[C@@H](CO)C(=O)N[C@@H](CCCNC(=N)N)C(=O)N[C@@H](CCCCN)C(=O)O [P2, myr-KYCCSRK (SEQ ID NO: 2)] (Myristoyl-KYCCSRK-OH; N-terminus and C-terminus assumed)
Km of the kinase [1]: without changing Km

Molecule: O=c1c(-c2ccc(O)cc2)coc2cc(O)cc(O)c12 [genistein]
Akt activation by either insulin or P2 [2]: prevented Akt activation

Molecule: KFCCSRK (SEQ ID NO: 9) [P2Y-F]
effect on IRK kinase activity / substrate phosphorylation [3]: significant decrease in substrate phosphorylation

Molecule: insulin
glucose uptake [4]: stimulated glucose uptake to about the same extent
glucose uptake [5]: more robust response
phosphorylation of GSK3α at S21 [6]: enhanced phosphorylation
phosphorylation of GSK3β at S9 [7]: enhanced phosphorylation

effect on IRK kinase activity in the cell [9]: potent inhibitor of the kinase
Molecule: myr-KKRILHC (SEQ ID NO: 5) (Myristoyl-KKRILHC) [peptide (a), BVR based peptide]
IRK autophosphorylation ([32P] incorporation) [8]: did not lead to increased [^32P] incorporation

Molecule: myr-KRNRYLSF (SEQ ID NO: 6) (Myristoyl-KRNRYLSF) [peptide (b), BVR based peptide]
IRK autophosphorylation ([32P] incorporation) [8]: did not lead to increased [^32P] incorporation
